According to the NIST ThermoML archive (doi:10.1021/je301095j):
Numbers after ± are expanded uncertainties.

Settings: 101.33 kPa, Liquid; for viscosity: Capillary tube (Ostwald / Ubbelohde) method; for mass density: Vibrating tube method

viscosity (283.15 K) [mPa·s] | mass density (283.15 K) [kg/m3] | viscosity (293.15 K) [mPa·s] | mass density (293.15 K) [kg/m3] | viscosity (298.15 K) [mPa·s] | mass density (298.15 K) [kg/m3] | viscosity (303.15 K) [mPa·s] | mass density (303.15 K) [kg/m3] | viscosity (313.15 K) [mPa·s] | mass density (313.15 K) [kg/m3] | Compound
0.493 ± 0.004 | 877.72 ± 0.12 | 0.438 ± 0.003 | 866.71 ± 0.12 | 0.414 ± 0.003 | 861.2 ± 0.12 | 0.392 ± 0.003 | 855.7 ± 0.13 | 0.353 ± 0.003 | 844.69 ± 0.13 | COCCOC [1,2-dimethoxyethane]
1.459 ± 0.009 | 797.97 ± 0.12 | 1.209 ± 0.007 | 789.43 ± 0.12 | 1.098 ± 0.007 | 785.16 ± 0.12 | 0.998 ± 0.006 | 780.88 ± 0.12 | 0.831 ± 0.005 | 772.34 ± 0.13 | CCO [ethanol]
13.52 ± 0.07 | 832.11 ± 0.13 | 9.167 ± 0.05 | 825.13 ± 0.13 | 7.618 ± 0.042 | 821.63 ± 0.14 | 6.395 ± 0.036 | 818.14 ± 0.14 | 4.628 ± 0.028 | 811.15 ± 0.14 | CCCCCCCCO [octan-1-ol]
5.463 ± 0.04 | 821.95 ± 0.24 | 4.037 ± 0.03 | 814.6 ± 0.24 | 3.49 ± 0.026 | 810.93 ± 0.24 | 3.032 ± 0.023 | 807.25 ± 0.24 | 2.319 ± 0.018 | 799.9 ± 0.24 | CCCCCO [pentan-1-ol]
